# Reference: patent US20100152140A1, “Method of Cancer Treatment with Naphthol Analogs” (priority 2007, published 2010)
# Columns and labels:
# [1] = system: NSCLC cells (H1734, H226, A549, H292); assay: MTT assay, NSCLC cell lines; type: cell-based, human
# Protocol: (§1) The cytotoxic activity of Ro-31-8220 was also determined against the all four NSCLC cells and NHTBE cells. Briefly, the cells (2,000/well) were incubated in triplicate in 96-well plates in the presence or absence of indicated test samples in a final volume of 0.2 ml for different days at 37° C. Afterwards, we performed the MTT assay.
# H1734 cells [2] = assay: MTT viability, protection from Ro-31-8220 induced cytotoxicity; type: cell-based, human; details: H1734, inhibitor 2 h then 20 μM Ro-31-8220, 24 h
# Protocol: as §1
# CREB = assay: Western blot of p-CREB (CREB activation) in H1734 cells; type: cell-based, human; details: serum free media, time course and various concentrations for 4 h
# Protocol: (§2) Western Blot Analysis. Protein extracts from each of NSCLC cells and the NHTBE cells, were prepared by lysing the cells in SDS lysis buffer (250 mM Tris-Cl, pH 6.5, 2% SDS, 4% β-mercaptoethanol, 0.02% bromophenol blue, 10% glycerol) containing protease and phosphatase inhibitors. Standard SDS-PAGE and Western blotting procedures were used to analyze the cell extracts. Nitrocellulose blots were probed with anti-CREB and anti-phospho-specific pSer-133 CREB (Upstate Biotechnology, Waltham, Mass.); anti-Bcl-2, anti-Bcl-XL, anti-phospho-Erk1/2, and anti-Erk1/2 (Santa Cruz Biotechnology, Santa Cruz, Calif.); and anti-phospho-Rsk and anti-Rsk (Cell Signaling Technology, Cambridge, Mass.). To detect the cleavage products of apoptosis, nitrocellulose blots were probed with anti-poly (ADP-ribose) polymerase (PARP), anti-caspase-9, and anti-caspase-3 antibodies (New England Biolabs, Beverly, Mass.). Anti-actin antibodies were purchased from Sigma-Aldrich (St. Louis, Mo.) and the caspase-3 inhibitor Ac-DEVD-CHO was obtained from Promega (Madison, Wis.).
# [3] = system: CRE consensus oligonucleotide binding; assay: EMSA of CRE consensus oligonucleotide binding, H1734 nuclear extracts; type: cell-based, human; details: serum free media
# Protocol: Electrophoretic Mobility Shift Assay. Isolation of nuclear extracts, sequences, preparation of oligonucleotide probes, electrophoretic mobility shift assay (EMSA) was conducted as previously described (19).
# pCREB = assay: Immunocytochemistry for pCREB localization in H1734 cells; type: cell-based, human; details: 20 μM, 4 h, serum free media
# Protocol: Immunocytochemistry for CREB Localization. H1734 cells (1×10^5 cells/ml) were plated on a glass chamber slide (Falcon; BD Biosciences, San Jose, Calif.) for adherence and treated the next day for 4 h with Ro-31-8220. The chambers were removed, and cells were fixed with cold acetone. After a brief washing in PBS, the slides were blocked with 5% normal goat serum in PBS for 1 h and then incubated for 4 h with rabbit polyclonal anti-pCREB antibody (dilution, 1:100). The slides were washed, incubated with goat anti-rabbit IgG-Alexa 594 (Molecular Probes, Eugene, Oreg.) (dilution 1:100) for 1 h, and counter-stained for nuclei with 4′,6-diamidino-2-phenylindole, dihydrochloride (DAPI; 50 ng/ml) (Molecular Probes, Eugene, Oreg.) for 15 min. The slides were mounted with a mounting medium (Sigma-Aldrich), and confocal images were captured with an Olympus FV500 confocal microscope (NY) by using a Plan Apo 60× oil objective.
# phospho-Rsk = assay: Western blot of phospho-Rsk in H1734 cells; type: cell-based, human; details: serum free media
# Protocol: as §2
# phospho-Erk1/2 = assay: Western blot of phospho-Erk1/2 in H1734 cells; type: cell-based, human
# Protocol: as §2
# NHTBE cells = assay: MTT assay, NHTBE cells; type: cell-based, human; details: NHTBE cells compared with NSCLC cells
# Protocol: as §1
# H1734 cells [4] = assay: Flow cytometric cell cycle analysis; type: cell-based, human; details: H1734, 10 μM
# Protocol: Flow Cytometric Analysis. H1734 cells were first synchronized by serum starvation overnight and then exposed to Ro-31-8220 for different lengths of time in the presence of 5% serum. The cells were washed, trypsinized, and fixed in 70% ethanol for 1 h at −20° C. Finally, cells were washed with PBS, resuspended, and stained in PBS containing 25 μg of propidium iodide and 1 μg/ml RNAase a for 30 min at room temperature. The distribution of cells during the cell cycle was then analyzed with a Facscalibur flow cytometer (Becton Dickinson, Bedford, Mass.).
# H1734 cells [5] = assay: Western blot of apoptosis cleavage products (PARP, caspase-9, caspase-3); type: cell-based, human
# Protocol: as §2
# H1734 cells [6] = assay: Soft agar colony assay, H1734; type: cell-based, human; details: H1734, 2 μM, 28 days
# Protocol: (§3) Soft Agar Colony Assay. Single-cell suspensions of the H1734 and H226 cells were treated with or without different concentrations of Ro-31-8220 and then mixed with agarose to a final concentration of 0.35%. Aliquots of 1.5 ml containing 10^4 cells and 10% fetal calf serum were plated in triplicate in six-well plates over a base layer of 0.7% agarose and allowed to gel. The number of colonies that were greater than 60 μm was counted after 28 days of incubation.
# H226 cells = assay: Soft agar colony assay, H226; type: cell-based, human; details: H226, 2 μM, 28 days
# Protocol: as §3
# H1734 cells [7] = assay: TUNEL apoptosis assay; type: cell-based, human; details: H1734, 5 μM, 48 h
# Protocol: Apoptosis Assay. H1734 cells (200,000) were plated in chamber slides; the next day, transfected with CREBwt, KCREB, and CREB133 DNA (100 ng/chamber), and with 100 nM siCREB. The terminal transferase dUTP nick end labeling (TUNEL) assay was performed according to the manufacturer's instructions (Promega). Briefly, the cells were fixed after 48 h of transfection in 4% formaldehyde and permeabilized with 0.5% Triton-X-100. The cells were incubated on the slides with terminal deoxynucleotidyl transferase and fluorescein-dUTP. They were then co-stained with DAPI and visualized with an Axioskop 40 fluorescence microscope (Carl Zeiss, Thornwood, N.Y.). Three fields were randomly counted for each sample. The images were captured at a magnification of 400× and stored using Axiovision software (Carl Zeiss), as described in the instructions provided by the manufacturer.
# [8] = system: U937 human leukemia cells; details: cited from earlier work
# interleukin-6 = details: human cord blood-derived mast cells, mouse bone marrow-derived mast cells; cited from earlier work
# [9] = system: nuclear transcription factor kappa B-dependent transcription; details: pulmonary A549 cells; cited from earlier work
compound,measurement,setting,value
O=S(=O)(NCCNC/C=C/c1ccc(Br)cc1)c1cccc2cnccc12 [H-89],cell growth of NSCLC cell lines,[1]; compared with Ro-31-8220,not significantly inhibiting the cell growth
CC(=O)N[C@@H](CC(=O)O)C(=O)N[C@@H](CCC(=O)O)C(=O)N[C@H](C(=O)N[C@H](C=O)CC(=O)O)C(C)C [Ac-DEVD-CHO],protection from Ro-31-8220 induced cytotoxicity,H1734 cells [2],protected the cells
"Cn1cc(C2=C(c3cn(CCCSC(=N)N)c4ccccc34)C(=O)NC2=O)c2ccccc21 [Ro-31-8220, 2-{1-[3-(Amidinothio)propyl]-1H-indol-3-yl}-3-(1-methylindol-3-yl)maleimide]",CREB activation (p-CREB),CREB,substantially suppressed
same,CRE consensus oligonucleotide binding,[3],suppressed in a time dependent and dose dependent manner
same,nuclear pCREB localization,pCREB,induced the nuclear disappearance of pCREB
same,concentration at which decrease of phospho-Rsk began,phospho-Rsk; 4 h,5 µM
same,time to suppression of phospho-Rsk,phospho-Rsk,≤ 2 h
same,time to start of decrease of phospho-Erk1/2 expression,phospho-Erk1/2,≤ 30 min
same,concentration at which decrease of phospho-Erk1/2 began,phospho-Erk1/2; 4 h,5 µM
same,"mitochondrial activity (MTT), cell growth","[1]; all four NSCLC cell lines, dose-dependent",suppressed mitochondrial activity
same,suppression of mitochondrial activity (MTT),NHTBE cells,significantly less than that in the NSCLC cells
same,percentage of cells in the G2 phase,"H1734 cells [4]; 6 h, controls 18%",24.5%
same,percentage of cells in G2 phase,"H1734 cells [4]; 24 h, controls 15%",53%
same,PARP cleavage,"H1734 cells [5]; H1734, 20 μM Ro-31-8220",cleavage of a 118-kDa PARP protein into an 87-kDa fragment
same,caspase-9 activation,"H1734 cells [5]; H1734, 20 μM Ro-31-8220, 47-kDa to 37-kDa band",time-dependent activation
same,caspase-3 activation,"H1734 cells [5]; H1734, 20 μM Ro-31-8220, 24 h",activation of caspase-3
same,decrease in colony formation,H1734 cells [6],85%
same,decrease in colony formation,H226 cells,85%
same,cells in which apoptosis was induced (TUNEL),H1734 cells [7],52%
same,apoptosis in U937 human leukemia cells,[8],induces apoptosis
same,proliferation of U937 human leukemia cells,[8],suppressed the proliferation
same,autocrine growth factor interleukin-6,interleukin-6,suppress
same,NF-kappa B-dependent transcription,[9],suppress
